Laboratory results taken from publication PMC12015462, “Prioritization of novel anti-infective stilbene derivatives by combining metabolomic data organization and a stringent 3R-infection model in a knowledge graph” (RSC Advances, 2025).
Like-named read-outs stand apart in the source and are kept apart here.

Tests used:
Format in all cases: cell-based
Mycobacterium marinum [1] = assay: Anti-biotic assay: M. marinum growth in broth (luminescence); settings: for activity at 0.411523 µM / activity at 1.23457 µM / activity at 3.7037 µM / activity at 11.1111 µM / activity at 33.3333 µM / activity at 100 µM: 72 h
Experimental: (§1) Since fractions were not weighed individually, the injection mass was used to calculate an average mass per fraction and thus a nominal mass concentration.
Plating bacteria and compounds or fractions was performed analogously to the infection assay described above. Bacteria growth was monitored with the Agilent BioTek H1 plate reader by recording luminescence at 32 °C.
The prepared plates were sealed and stored at 4 °C overnight. On the day of the experiment, nine 10 cm Petri dishes were infected (as described before) and grouped into three pools.

Dictyostelium discoideum = assay: Infection assay: growth of the host amoeba D. discoideum (fluorescence) in infection; settings: for activity at 0.411523 µM / activity at 1.23457 µM / activity at 3.7037 µM / activity at 11.1111 µM / activity at 33.3333 µM / activity at 100 µM: 72 h; for IC50: read-out: IC50 Dd in infection (μM)
Source text: as §1

Mycobacterium marinum [2] = assay: Infection assay: intracellular M. marinum growth (luminescence) in D. discoideum; settings: for activity at 0.411523 µM / activity at 1.23457 µM / activity at 3.7037 µM / activity at 11.1111 µM / activity at 33.3333 µM / activity at 100 µM: 72 h; for activity at 0.411523 µM: conc 0.411522634 uM; for activity at 1.23457 µM: conc 1.234567901 uM; for activity at 3.7037 µM: conc 3.703703704 uM; for activity at 11.1111 µM: conc 11.11111111 uM; for activity at 33.3333 µM: conc 33.33333333 uM; for activity at 100 µM: conc 100 uM; for IC50: interpolated between the two concentrations closest to residual growth 0.5, top concentration 100 μM
Source text: as §1

[3] = read-out: mean (normalised M. marinum growth, Mm in broth)
[4] = read-out: median (normalised M. marinum growth, Mm in broth)
[5] = read-out: mean normalized residual growth, Dd in infection
[6] = read-out: median normalized residual growth, Dd in infection
[7] = vehicle control set at 1, read-out: mean normalized residual growth, Mm in infection
[8] = vehicle control set at 1, read-out: median normalized residual growth, Mm in infection

Oc1ccc(/C=C/c2cc(O)c3c(c2)O[C@@H](c2ccc(O)cc2O)[C@@H]3c2cc(O)cc(O)c2)cc1 (relative stereo) [Compound 1, (+)-Gnetin D]
activity at 0.411523 µM (Mycobacterium marinum [1]; [3]): 121%
activity at 1.23457 µM (Mycobacterium marinum [1]; [3]): 119%
activity at 3.7037 µM (Mycobacterium marinum [1]; [3]): 118%
activity at 11.1111 µM (Mycobacterium marinum [1]; [3]): 111%
activity at 33.3333 µM (Mycobacterium marinum [1]; [3]): 110%
activity at 100 µM (Mycobacterium marinum [1]; [3]): 102%
activity at 0.411523 µM (Mycobacterium marinum [1]; [4]): 120%
activity at 1.23457 µM (Mycobacterium marinum [1]; [4]): 116%
activity at 3.7037 µM (Mycobacterium marinum [1]; [4]): 117%
activity at 11.1111 µM (Mycobacterium marinum [1]; [4]): 110%
activity at 33.3333 µM (Mycobacterium marinum [1]; [4]): 110%
activity at 100 µM (Mycobacterium marinum [1]; [4]): 102%
activity at 0.411523 µM (Dictyostelium discoideum; [5]): 161%
activity at 1.23457 µM (Dictyostelium discoideum; [5]): 111%
activity at 3.7037 µM (Dictyostelium discoideum; [5]): 113%
activity at 11.1111 µM (Dictyostelium discoideum; [5]): 81.5%
activity at 33.3333 µM (Dictyostelium discoideum; [5]): 58.3%
activity at 100 µM (Dictyostelium discoideum; [5]): 47.7%
activity at 0.411523 µM (Dictyostelium discoideum; [6]): 94.2%
activity at 1.23457 µM (Dictyostelium discoideum; [6]): 88.8%
activity at 3.7037 µM (Dictyostelium discoideum; [6]): 85.1%
activity at 11.1111 µM (Dictyostelium discoideum; [6]): 80.3%
activity at 33.3333 µM (Dictyostelium discoideum; [6]): 86.2%
activity at 100 µM (Dictyostelium discoideum; [6]): 82.6%
IC50 (Dictyostelium discoideum): > 100 µM
activity at 0.411523 µM (Mycobacterium marinum [2]; [7]): 93.5%
activity at 0.411523 µM (Mycobacterium marinum [2]; [8]): 93.7%
activity at 1.23457 µM (Mycobacterium marinum [2]; [7]): 114%
activity at 1.23457 µM (Mycobacterium marinum [2]; [8]): 117%
activity at 3.7037 µM (Mycobacterium marinum [2]; [7]): 153%
activity at 3.7037 µM (Mycobacterium marinum [2]; [8]): 154%
activity at 11.1111 µM (Mycobacterium marinum [2]; [7]): 171%
activity at 11.1111 µM (Mycobacterium marinum [2]; [8]): 172%
activity at 33.3333 µM (Mycobacterium marinum [2]; [7]): 168%
activity at 33.3333 µM (Mycobacterium marinum [2]; [8]): 169%
activity at 100 µM (Mycobacterium marinum [2]; [7]): 86.4%
activity at 100 µM (Mycobacterium marinum [2]; [8]): 83.4%
IC50 (Mycobacterium marinum [2]): > 100 µM

Oc1ccc(/C=C/c2cc(O)c3c(c2)O[C@H](c2ccc(O)cc2O)[C@@H]3c2cc(O)cc(O)c2)cc1 (relative stereo) [Compound 2, (+)-Gnetupendin C]
activity at 0.411523 µM (Mycobacterium marinum [1]; [3]): 97.4%
activity at 1.23457 µM (Mycobacterium marinum [1]; [3]): 103%
activity at 3.7037 µM (Mycobacterium marinum [1]; [3]): 113%
activity at 11.1111 µM (Mycobacterium marinum [1]; [3]): 109%
activity at 33.3333 µM (Mycobacterium marinum [1]; [3]): 110%
activity at 100 µM (Mycobacterium marinum [1]; [3]): 109%
activity at 0.411523 µM (Mycobacterium marinum [1]; [4]): 95.6%
activity at 1.23457 µM (Mycobacterium marinum [1]; [4]): 101%
activity at 3.7037 µM (Mycobacterium marinum [1]; [4]): 111%
activity at 11.1111 µM (Mycobacterium marinum [1]; [4]): 108%
activity at 33.3333 µM (Mycobacterium marinum [1]; [4]): 109%
activity at 100 µM (Mycobacterium marinum [1]; [4]): 109%
IC50 (Mycobacterium marinum [1]; read-out: IC50 Mm in broth (μM)): > 100 µM
activity at 0.411523 µM (Dictyostelium discoideum; [5]): 94.2%
activity at 1.23457 µM (Dictyostelium discoideum; [5]): 97.6%
activity at 3.7037 µM (Dictyostelium discoideum; [5]): 98.8%
activity at 11.1111 µM (Dictyostelium discoideum; [5]): 105%
activity at 33.3333 µM (Dictyostelium discoideum; [5]): 101%
activity at 100 µM (Dictyostelium discoideum; [5]): 114%
activity at 0.411523 µM (Dictyostelium discoideum; [6]): 101%
activity at 1.23457 µM (Dictyostelium discoideum; [6]): 91.8%
activity at 3.7037 µM (Dictyostelium discoideum; [6]): 86%
activity at 11.1111 µM (Dictyostelium discoideum; [6]): 76.8%
activity at 33.3333 µM (Dictyostelium discoideum; [6]): 74.6%
activity at 100 µM (Dictyostelium discoideum; [6]): 83.1%
IC50 (Dictyostelium discoideum): > 100 µM
activity at 0.411523 µM (Mycobacterium marinum [2]; [7]): 112%
activity at 0.411523 µM (Mycobacterium marinum [2]; [8]): 122%
activity at 1.23457 µM (Mycobacterium marinum [2]; [7]): 145%
activity at 1.23457 µM (Mycobacterium marinum [2]; [8]): 143%
activity at 3.7037 µM (Mycobacterium marinum [2]; [7]): 154%
activity at 3.7037 µM (Mycobacterium marinum [2]; [8]): 147%
activity at 11.1111 µM (Mycobacterium marinum [2]; [7]): 167%
activity at 11.1111 µM (Mycobacterium marinum [2]; [8]): 167%
activity at 33.3333 µM (Mycobacterium marinum [2]; [7]): 109%
activity at 33.3333 µM (Mycobacterium marinum [2]; [8]): 105%
activity at 100 µM (Mycobacterium marinum [2]; [7]): 27.8%
activity at 100 µM (Mycobacterium marinum [2]; [8]): 35.5%
IC50 (Mycobacterium marinum [2]): 66.7 µM
